One assay relates to OPCs. In words: HD-DoE 12-factor model for stage 4 on OPCs, 6 days in culture. The format is cell-based, human. The protocol: To engineer the recipe of stage 4 of differentiation, 48 or 96 different combinations of effectors generated using Design-of-Experiments compression through D-optimality were robotically prepared. The effector combinations were prepared in a basal media and were subsequently added to the cells, which were treated with the stage 1, stage 2 and stage 3 differentiation media as described in the earlier examples to generate OPCs. […] Solutions within the tested space could then be explored to address desirability. […] Benarroch (2009) Neurology 72:1779-1785; Shi et al. (2019) Exp Ther Med, 18:1258-1266).

In a further assay the test system is stage 2 early-OPCs. In words: HD-DoE 12-factor model for stage 3 (version 1) on stage 2 early-OPCs. The format is cell-based, human. Particulars: for factor contribution: positive. The protocol: In another model, the effects of Activin A and TTNPB along with LDN193189, MHY1485, PDGF-AA, AICAR, FGF2, CHIR99021, DBZ, MK2206, Purmorphamine and T3+T4 were tested on gene profile of differentiating cells. When this model was optimized for maximum expression of SOX10 at 54.7, we observed Activin A again had positive regulatory impact on its expression, with factor contribution of 4.7. Other positive factors included MK2206, with the highest factor contribution at 16.2, MHY1485 at 11.49, CHIR99021 at 9.6, DBZ at 9.3, FGF2 at 3.6 and PDGF-AA, with factor contribution less than 3 (FIG. 20).
In this model, we also investigated the conditions of expression of another important OPC gene, CSPG4 (Goldman and Kuypers (2015) Development 142:3983-95: van Tilborg et al. (2018) Glia 66:221-238).
Dynamic profile analysis was used to better assess the impact of the factors on our selected genes and find the combination set that can optimize their expression (FIG. 22). According to this analysis, even though Activin A has a positive effect on SOX10, it decreases level of PDGFRa and OLIG1. […] Moreover, SOX10 is one of the main transcription factors of oligodendrocytes, along with OLIG2 and NKX2-2, that has shown the potential to commit the stem cells to oligodendrocytes in reprogramming efforts (Wang et al. (2014) Proc Natl Acad Sci USA 111:E2885-94; Garciá-León et al. (2018) Stem Cell Reports 10:655-672). […] One of the main challenges of differentiating cells to oligodendrocyte fate is controlling the mixed population and increasing the purity of the culture by committing more cells to oligodendrocyte over neuronal identity. Therefore, DBZ was excluded from the final recipe.
At this point, we investigated the expression profile of a larger group of genes defining oligodendrocyte progenitor population at a later stage, including ID2, CNP and BCAN (Perlman et al. (2020). Glia 68:1291-1303; Goldman and Kuypers (2015) Development 142:3983-95). In this model, these genes were expressed at 1900, 660 and 44, respectively.

Assay [1] relates to pre-OPCs. In words: HD-DoE 12-factor model for stage 2 (version 1), 3 days on stage 1 pre-OPCs. The note with it: for factor contribution: optimized for maximum expression of OLIG2 at 1841.6. In kind it is cell-based, human. The source says:
To engineer the recipe of stage 2 of differentiation, cells were first cultured in the stage 1 media described in Example 1 and then treated with combinations of 8 or 12 factors for 3 days and the gene expression of cells in each condition was modeled. At this point, due to short duration of culture (only six days in vitro), we decided to focus on maximal expression of OLIG2 and maintenance of high expression of NKX2-2, while initiating expression of SOX10, OLIG1 and PDGFRa, to guide the cells towards oligodendrocyte fate (Emery and Lu (2015). Cold Spring Harb Perspect Biol. 7:a020461; Perlman et al. (2020). Glia 68:1291-1303; Goldman and. Kuypers (2015) Development 142:3983-95).
In one 12-factor model, the individual and combinatorial impact of SUN 11602 an agonist for FGF signaling pathway, FGF2, Activin A an activator of one of the receptors of TGF-b superfamily, A 8301, an inhibitor of TGF-b pathway, CHIR99021 a WNT activator, AGN193109 a RA antagonist, MK2206 an AKT inhibitor, Purmorphamine an agonist of SHH signaling pathway, AZD3147 an antagonist of mTOR pathway, MHY1485 an agonist of mTOR pathway, SC79 an agonist of AKT pathway and G06983 an inhibitor of PKC pathway, were tested.
Dynamic profile analysis was used to assess the expression levels of other genes of interests, such as NKX2-2, OLIG1 and SOX10, while the model is maximized for OLIG2. Activin A and SUN 11602 were brought down to zero due to their very low factor contribution. We observed when the model is optimized, the expression level of NKX2-2 is at 3000, PDGFRa at 1000, OLIG1 at 80 and SOX10 at 15 (FIG. 12).

The subject of assay [2] is pre-OPCs. In words: HD-DoE 8-factor model for stage 2 (version 2) on pre-OPCs. The format is cell-based, human. The note with it: for factor contribution: positive. The method, then:
To engineer the recipe of stage 2 of differentiation, cells were first cultured in the stage 1 media described in Example 1, then, 48 or 96 different combinations of effectors generated using Design-of-Experiments compression through D-optimality were robotically prepared. The effector combinations were prepared in a basal media and were subsequently added to the cells, which were then allowed to differentiate. Three days later RNA extraction was performed, and gene expression was obtained using quantitative PCR analysis. The data was normalized and modeled using partial least squares regression analysis to the effector design, resulting in the generation of gene-specific models, which after model tuning for maximal predictive power, provided explanation of the effectors ability to control the expression of individual genes, combinatorically, and individually. Solutions within the tested space could then be explored to address desirability.
At this point, due to short duration of culture (only six days in vitro) we decided to focus on maximal expression of OLIG2 and maintenance of high expression of NKX2-2, while initiating expression of SOX10, OLIG1 and PDGFRa, to guide the cells towards oligodendrocyte fate (Emery and Lu (2015). Cold Spring Harb Perspect Biol. 7:a020461; Perlman et al. (2020). Glia 68:1291-1303; Goldman and Kuypers (2015) Development 142:3983-95). In one 8-factor model, the individual and combinatorial impact of CHIR99021 (a WNT pathway agonist), AGN193109 (an RA pathway antagonist), FGF-2 (an FGFR agonist), Purmorphamine (an SHH pathway agonist), AICAR (an AMPK agonist), GW3965 (an LXR pathway agonist), GW590735 (a PPAR-a agonist) and AZD3147 (a mTOR antagonist) on further differentiation of cells were tested.

Assay [3] relates to human pluripotent stem cells. Briefly: HD-DoE #2: 13-factor model, differentiation toward anterior neuroectoderm, gene expression. In kind it is cell-based. An excerpt:
To further enhance the conditions for oligodendrocyte differentiation from pluripotency, we performed an additional HD-DoE experiment. We obtained additional gene regulatory models that were used for preparation of a differentiation protocol. The basis of this was a 13-factor HD-DoE experiment with focus on initiation of differentiation of cells toward anterior neuroectoderm. In this model, we focused on expression of FEZF2 and OTX2.
As shown in the results summarized in FIG. 4, the model was optimized for highest expression of OTX2 at 12755.9. According to the model of high expression of OTX2, seven effectors had positive contribution including MK2206, PD0325901, CHIR99021, LDN193189, Go6983, PD173074 and BLU9931 with highest factor contribution of 22.2 for MK2206 and lowest factor contribution of 1.7 for PD173074 and BLU9931.
As shown in the results summarized in FIG. 5, the model was optimized for highest expression of FEZF2 at 4466. When the model was optimized for maximum expression level of FEZF2, three effectors including LDN193189 with factor contribution of 19.5, PD0325901 with factor contribution of 14.6 and MK2206 with factor contribution of 12.3 were common with previous condition and three new effectors including purmorphamine-500 nM, XAV939 and SC79 were introduced.
As shown in the results summarized in FIG. 6, to fine-tune the recipe and find the optimum combination of factors for high expression of both OTX2 and FEZF2, dynamic profiling analysis was done. […] Therefore, these two factors were added to the optimized culture recipe.

The test system of assay [4] is cells cultured in stage 1 and stage 2 differentiation media. Briefly: HD-DoE 8-factor model for stage 3 (version 2). In kind it is cell-based, human. The note with it: positive. The method, then: To further differentiate the cells to an oligodendrocyte progenitor identity, additional HD-DoE experiments were performed on the cells that were cultured in stage 1 and stage 2 differentiation media. After 3 days, gene expression of cells in different combinatorial conditions were investigated. At this time, we focused on maximal expression of signature oligodendrocyte progenitor genes such as SOX10, OLIG1 and PDGFRa (Goldman and Kuypers (2015) Development 142:3983-95: Marques et al. (2016) Science 352:1326-1329). In one 8-factor model, individual and combinatorial effects of TTNPB (an RA agonist), CHIR99021, FGF-2, IGF-1, AGN193109, Purmorphamine, MHY1485 (a mTOR pathway agonist) and SC79 (an AKT pathway agonist) were tested to guide the cells toward a SOX10/PDGFRa positive population. […] CHIR99021 was also positive, with a factor contribution of 8.1 (FIG. 33).
Other positive factors were IGF-1, with a factor contribution of 11.2, CHIR99021, with a factor contribution of 8.5 and TTNPB, with a factor contribution below 1 (FIG. 34).
To confirm the impact of TTNPB, FGF-2 and IGF-1 on a bigger scale, we investigated the expression profile of a larger group of genes defining late oligodendrocyte progenitor population, such as ID2, CSPG4, FYN, SOX8, PLP1 and BCAN (Perlman et al. (2020). Glia 68:1291-1303; Goldman and Kuypers (2015) Development 142:3983-95; van Tilborg et al. (2018) Glia 66:221-238) and neuronal genes such as NEUROD1, NEUROG1 and NEUROG2 in presence of IGF-1, FGF-2 or TTNPB.

The mark [5] stands for this setting: optimized for maximum expression of OLIG1 at 454.7.
[6] abbreviates: optimized for maximum expression of OLIG2 at 3325.
Setting [7] is: model optimized for highest expression of OTX2 at 12755.9, positive contribution.
Where [8] appears, read: optimized for maximum expression of SOX10 at 54.7.
Where [9] appears, read: dynamic profile, model maximized for OLIG2.
Where [10] appears, read: optimized for maximum expression of CSPG4 at 38.6.
The mark [11] stands for this setting: dynamic profiling analysis, 13-factor model.

Where “and” joins values, the source holds several entries; their conditions need not be identical. Equal values may be shown once.

As to `NC(=O)c1ncn([C@@H]2O[C@H](CO)[C@@H](O)[C@H]2O)c1N` [AICAR], in the assay on OPCs (optimized for PLP1 at 3600, negative impact), the factor contribution was 12 and 11.8. In addition, the “effect on late OPC genes ID2, CNP and BCAN” value in the assay on stage 2 early-OPCs (factor effect plots) was “positively regulates”.
As to `C[C@H]1COCCN1c1cc(C2(S(=O)(=O)C3CC3)CC2)nc(-c2ccc(NC(=S)NCCO)cc2)n1` [AZD3147], the factor contribution is 5.2 with pre-OPCs [1] (positive regulatory effect); 26.7 and 26.76 in the assay on pre-OPCs [2] (setting [5]); 30.2 with pre-OPCs [2] (setting [6]).
As for `C=CC(=O)Nc1cccc(C)c1Nc1ncc2cc(-c3c(Cl)c(OC)cc(OC)c3Cl)ccc2n1` [BLU9931], the factor contribution in assay [3] (setting [7]) came out at 1.7.
In the case of `Cc1c[nH]c(-c2cnc(NCCNc3ccc(C#N)cn3)nc2-c2ccc(Cl)cc2Cl)n1` [CHIR99021], the factor contribution with pre-OPCs [2] (setting [5]) was determined as 22.8; in the assay on pre-OPCs [2] (setting [6]), 17.96; with stage 2 early-OPCs (setting [8]), 9.6; in assay [4] (optimized for SOX10 at 41.04) it was 8.1; in assay [4] (optimized for maximum expression of PDGFRa at 853.4) it was 8.5.
Regarding `C[C@H](NC(=O)Cc1cc(F)cc(F)c1)C(=O)N[C@@H]1C(=O)N(C)c2ccccc2-c2ccccc21` [DBZ], the “effect on neuronal genes” value in the assay on stage 2 early-OPCs (dynamic profile / factor effect plots) was “increases neuronal genes”. In the assay with stage 2 early-OPCs (setting [8]), the factor contribution was 9.3.
As to `C[C@H](NC(=O)Cc1cc(F)cc(F)c1)C(=O)N[C@@H]1C(=O)N(C)c2ccccc2-c2ccccc21` [GSI-XX], the “effect on expression of neuronal genes NeuroG1, NeuroG2 and NeuroD1” value in the assay with OPCs (dynamic profile analysis) is given as “positively regulates”. For the same compound, the factor contribution in the assay with OPCs (optimized for CNP at 1790, positive) is reported as 7.
Consider `Cc1nc(-c2ccc(C(F)(F)F)cc2)sc1C(=O)NCc1ccc(OC(C)(C)C(=O)O)cc1` [GW590735], for which the “impact on SOX10 and NKX2-2 expression” value in the assay on pre-OPCs [2] (setting [9]) is “negative impact”. Besides, the figures for the factor contribution in the assay with pre-OPCs [2] (setting [5]) and in the assay with pre-OPCs [2] (setting [6]) were 3.1 and 5.4, respectively.
Consider `COc1ccc2c(c1)c(C1=C(c3c[nH]c4ccccc34)C(=O)NC1=O)cn2CCCN(C)C` [Go6983], for which, in the assay with pre-OPCs [1] (setting [9]), the “effect on expression of SOX10” value is listed as “positively regulate” and the “impact on PDGFRA” value was “significant negative impact”. The factor contribution in the assay on pre-OPCs [1] (negative impact) was 10.2 and 10.22.
Regarding `NC1(c2ccc(-c3nc4ccn5c(=O)[nH]nc5c4cc3-c3ccccc3)cc2)CCC1` [MK2206], the factor contribution was determined as 5.3 with pre-OPCs [1] (positive regulatory effect); 12.3 in assay [3] (model optimized for highest expression of FEZF2 at 4466, positive); 22.2 in assay [3] (setting [7]); 5.2 with stage 2 early-OPCs (setting [10]); 16.2 with stage 2 early-OPCs (setting [8]).
Regarding `CCN(CC)CCCCNc1ncc2cc(-c3cc(OC)cc(OC)c3)c(NC(=O)NC(C)(C)C)nc2n1` [PD173074], the factor contribution in assay [3] (setting [7]) turned out to be 1.7.
In the case of `Oc1nc(-c2ccc(C(F)(F)F)cc2)nc2c1CSCC2` [XAV939], in assay [3] (setting [11]), the “effect on expression of FEZF2” value was “significant positive effects” and the “impact on expression level of OTX2” value is given as “no negative impact”.
Consider PDGF-AA: PDGFR pathway agonist, for which the factor contribution in the assay with stage 2 early-OPCs (setting [10]) was 2.9; in the assay on stage 2 early-OPCs (setting [8]), “less than 3”.

The values are drawn from patent US12729368B2, “Methods and compositions for generating oligodendrocyte progenitor cells” (Trailhead Biosystems Inc., priority 2022, dated 2026).
